Source: patent publication US12553028B2, “Method to generate induced oligodendrocyte-lineage cells and treatment using such cells” (ACADEMIA SINICA, priority 2018, dated 2026)
“Also recorded” adds a separate entry of the source.

What was measured:
[1] = test system: human primary skin fibroblasts; assay: Generation of induced OLGs from skin fibroblasts by chemical treatment (morphology / conversion); format: cell-based; conditions: for morphology of induced OLGs when replacing VPA: replaces VPA at the first step induction, compared to the original cocktail
Description: (§1) Cells (1×10^4) were plated on each well of a 24-well plate. Culture in HG-DMEM (Life technologies) supplement with 10% fetal bovine serum (FBS) (Hyclone) for 2 days, replace the medium with Knockout medium supplement with 1% N2 supplement, 1% Albumax, 1% NEAA (treatment medium, all form Life technologies) or DMEM/F12 with 1% N2, 1% B27, 20 ng/mL PDGF-AA, EGF, bFGF and 10 ng/mL NT3 and added the different treatment chemical compound cocktails, The final condition are 3 mM Valproic acid for 2 days, 10 μM Y27632, 10 μM SU9516, 10 μM Forskolin (FSK) (Tocris) for 1 days; or 10 μM Mocetinostat or Pracinostat for 2 days, 10 μM Y27632, 10 μM SU9516, 10 μM Forskolin (FSK) (Tocris) for 1 days.

[2] = test system: human primary skin fibroblasts; assay: Immunofluorescence assay of oligodendrocyte markers on induced cells; format: cell-based
Description: as §1
The induced OLGs were fixed with 4% formaldehyde for […] at room temperature. After washing with 1×PBS, cells were permeabilized with 0.03% Triton X-100 for 5 min. The cells were washed twice with 1×PBS, and then were incubated with primary antibodies [against Olig2 antibody (1:100; Merck millipore), Nkx2.2 (1:100; Stanta Cruz), O4 antibody (1:100; Merck millipore), MBP antibody (1:100; Proteintech), PDGFRα antibody (1:100; R&D systems)] and 4′,6-diamidino-2-phenylindole (DAPI) (1:1500; Life technologies) in blocking buffer (0.02% BSA in PBS) for overnight at 4° C. Cells were washed twice in 1×PBS, followed by an incubation in CF555 goat anti-rabbit secondary antibody (1:200; Life technologies), CF488 goat anti-rabbit secondary antibody (1:200; Biotium), CF555 goat anti-mouse secondary antibody (1:200; Life technologies), CF488 goat anti-mouse secondary antibody (1:200; Biotium), CF555 goat anti-rat secondary antibody (1:200; Life technologies) in blocking buffer for 1 hr in the dark at room temperature. Cells were washed twice in 1×PBS, and the cells will be keeping in 1×PBS. Fluorescence was analyzed by using a fluorescence microscope. The fluorescence intensity of each image was analyzed by an image analysis software (Image-Pro plus 4.5 software, MD, USA). Each immunofluorescence image was quantified more than 300 cells per field.

## COc1ccc2c(c1)c(C1=C(c3c[nH]c4ccccc34)C(=O)NC1=O)cn2CCCN(C)C [Go6983, 3-{1-[3-(Dimethylamino)propyl]-5-methoxy-1H-indol-3-yl}-4-(1H-indol-3-yl)-1H-pyrrole-2,5-dione]
[1]
  conversion of fibroblasts into OLG like cells: dispensable for the conversion process
[1]; Go6983 together with Y27632 and SU9516
  dendrite-like formation: promoted the dendrite-like formation

## Nc1ccccc1NC(=O)c1ccc(CNc2nccc(-c3cccnc3)n2)cc1 [Mocetinostat, N-(2-aminophenyl)-4-((4-(pyridin-3-yl)pyrimidin-2-ylamino)methyl)benzamide]
[1]
  morphology of induced OLGs when replacing VPA: more mature oligodendroglia morphology
[2]
  MBP expression (immunofluorescence): expressed; also recorded: stronger expression
  O4 expression (immunofluorescence): expressed; also recorded: stronger expression

## CCCCc1nc2cc(/C=C/C(=O)NO)ccc2n1CCN(CC)CC [Pracinostat, (E)-3-(2-butyl-1-(2-(diethylamino)ethyl)-1H-benzo[d]imidazol-5-yl)-N-hydroxyacrylamide]
[1]
  morphology of induced OLGs when replacing VPA: more mature oligodendroglia morphology
[2]
  MBP expression (immunofluorescence): expressed; also recorded: stronger expression
  O4 expression (immunofluorescence): expressed; also recorded: stronger expression

## COc1ccc2c(c1)/C(=C/c1cnc[nH]1)C(=O)N2 [SU9516, (Z)-3-((1H-imidazol-5-yl)methylene)-5-methoxyindolin-2-one]
[1]
  morphological change of fibroblasts: domed-shape formation

## C[C@@H](N)[C@H]1CC[C@H](C(=O)Nc2ccncc2)CC1 [Y27632, Trans-4-[(1R)-1-Aminoethyl]-N-(4-pyridinyl)cyclohexane-carboxamide]
[1]
  morphological change of fibroblasts: dendritic-like morphological change

## C=C[C@@]1(C)CC(=O)[C@]2(O)[C@@]3(C)[C@@H](O)CCC(C)(C)[C@@H]3[C@H](O)[C@H](OC(C)=O)[C@@]2(C)O1 [forskolin, (3R,4aR,5S,6S,6aS,10S,10aR, 10bS)-6,10,10b-Trihydroxy-3,4a,7,7,10a-pentamethyl-1-oxo-3-vinyldodecahydro-1H-benzo[f]chromen-5-yl acetate]
[1]; screen of 22 drugs on the YSG cocktail after pre-treating with VPA
  promotion of the conversion (screen for supporting factors): significantly promoted the conversion

## CCCC(CCC)C(=O)O [valproic acid, 2-Propylpentanoic acid]
[1]; pretreating for 2 days before Y27632, SU9516, Go6983
  reprogramming efficiency: enhance the reprogramming efficiency
